The values below come from PubChem BioAssay (NCI).

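These data come from cells grown in 96-well plates and exposed to compound for 48 hours at five concentrations. TGI is the concentration that stops growth completely.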

Holding throughout (assay): NCI anticancer screen, dose series, 48 h
Experiment [1] relates to TK-10 renal.
Experiment [2] deals with PC-3 prostate.
For experiment [3], the system named is EKVX NSCLC.
Experiment [4] has as its system RPMI-8226 leukemia.
The subject of experiment [5] is NCI/ADR-RES ovarian.
Experiment [6] has as its system U251 CNS.
Experiment [7] relates to OVCAR-4 ovarian.
Experiment [8] deals with HCC-2998 colon.
Experiment [9] has as its system NCI-H23 lung.
For experiment [10], the system named is SK-OV-3 ovarian.
The test system of experiment [11] is M14 melanoma.
The subject of experiment [12] is HOP-62 NSCLC.
Experiment [13] has as its system SR leukemia.
In experiment [14] the test system is HOP-92 NSCLC.
In experiment [15] the test system is OVCAR-3 ovarian.
In experiment [16] the test system is SNB-75 CNS.
In experiment [17] the test system is RXF 393 renal.
For experiment [18], the system named is NCI-H522 lung.
The test system of experiment [19] is LOX IMVI melanoma.
Experiment [20] relates to HCT-116 colon.

As for `C[n+]1c(-c2ccc(/C=N\NC(=O)c3ccc(C(=O)N/N=C/c4ccc(-c5cn6ccsc6[n+]5C)cc4)cc3)cc2)cn2ccsc21`, the TGI in experiment [1] came to 40.3 µM; in [2], 41.1 µM; in [3], 34.3 µM; in [4], 55 µM; in [5], 41.1 µM; in [6], 48.9 µM. The TGI in experiment [7] turned out to be 57.8 µM; in [8], 58.4 µM; in experiment [9], 50.9 µM; in experiment [10] it was 74.6 µM; in experiment [11], 44.9 µM; in experiment [12], 35.1 µM. In addition, the TGI in experiment [13] was 85.6 µM; in experiment [14] it was 36.4 µM; in experiment [15] it was 28.5 µM; in experiment [16], 46.7 µM; in experiment [17], 53.5 µM; in experiment [18] it was 60.6 µM.

Turning to `CCCCOc1ccc(S(=O)(=O)/N=C(\NN)Nc2ccc(Cl)cc2)cc1`, the TGI in experiment [1] was above 100 µM; in experiment [2] it was 33.1 µM; in [19] it was 35.6 µM; in [3], above 100 µM; in experiment [4] it was above 100 µM; in experiment [5] it was 76.3 µM. Moreover, the TGI is 30.2 µM in experiment [6]; 45.3 µM in experiment [7]; above 100 µM in experiment [9]; 42.9 µM in experiment [20]; 67.4 µM in [10]; 56.9 µM in experiment [11]. For the same compound, the TGI is 38.5 µM in experiment [12]; 52.6 µM in experiment [13]; 67.2 µM in [14]; 46.8 µM in experiment [15]; 27 µM in [16]; 36.2 µM in [17].

Consider `COc1ccc2[nH]c3c(C)c4cnccc4c(C)c3c2c1`, for which the TGI in experiment [1] was above 10 µM; in [2], above 10 µM; in experiment [3] it was above 10 µM; in experiment [4] it was 7.11 µM; in experiment [5], 6.94 µM; in experiment [6] it was 3.24 µM. The TGI was 5.17 µM in [7]; 3.35 µM in experiment [8]; above 10 µM in experiment [9]; 2.5 µM in experiment [20]; above 10 µM in experiment [10]; 2.54 µM in experiment [11]. The TGI in experiment [12] is 2.78 µM; in experiment [13] it was above 10 µM; in experiment [14], above 10 µM; in [15], 2.43 µM; in experiment [16], above 10 µM; in experiment [17], 6.02 µM. The compound further had a TGI in experiment [18] of 4.43 µM.

In the case of `O=c1cc(-c2ccccc2Cl)[nH]c2cc3c(cc12)OCO3`, the TGI in experiment [1] is above 44.7 µM; in experiment [2] it was above 100 µM; in experiment [19], 11.9 µM; in [4] it was 0.565 µM; in experiment [5], 0.0698 µM; in [6] it was 1.25 µM. Moreover, the TGI was above 9.75 µM in experiment [7]; 0.496 µM in experiment [8]; above 11 µM in experiment [9]; 16 µM in experiment [20]; 11.4 µM in [10]; 24.3 µM in experiment [11]. Further, the TGI in experiment [12] was 11.3 µM; in experiment [13], above 100 µM; in [14] it was 67.5 µM; in experiment [15], 0.4 µM; in experiment [16] it was above 100 µM; in experiment [17] it was 16.4 µM. Further, the TGI in experiment [18] was determined as 0.489 µM.

As to `NC(N)=N/N=C/c1ccc(O)c(C(=O)O)c1`, the TGI in [1], in [2], in experiment [19], in [4], in experiment [5] and in experiment [6] was above 100 µM each time. The TGI in experiment [7], in experiment [8], in experiment [9], in experiment [20], in experiment [10] and in [11] was above 100 µM each time. Besides, the TGI in experiment [12], in [13], in [14], in experiment [15], in experiment [16] and in experiment [17] was above 100 µM in each case. The TGI in experiment [18] was above 100 µM.

As for `CCOC(=O)CCC(NC(=O)c1ccc(Oc2nc3ccccc3nc2C(=O)OCC)cc1)C(=O)OCC` (stereo not drawn), the TGI in experiment [1], in experiment [2], in experiment [19], in experiment [3], in experiment [4] and in experiment [5] was above 100 µM in each case. Further, the TGI in [6], in experiment [7], in experiment [8], in experiment [9], in [20] and in experiment [11] was above 100 µM throughout. Besides, the TGI was above 100 µM in [12]; above 100 µM in [13]; above 100 µM in [14]; above 100 µM in [15]; 98.1 µM in experiment [16]; above 100 µM in experiment [18].

With `Cc1cc(=O)[nH]c2c3c(ccc12)OC(C)(C)C=C3`, the TGI was above 100 µM in experiment [1]; above 100 µM in experiment [2]; above 63.7 µM in [3]; above 100 µM in experiment [4]; above 100 µM in [5]; above 47.4 µM in experiment [6]. In addition, the TGI is above 100 µM in experiment [7]; above 96.1 µM in [8]; above 100 µM in experiment [9]; above 50.1 µM in experiment [20]; above 82.9 µM in experiment [10]; above 100 µM in experiment [11]. The TGI in experiment [12] was above 100 µM; in experiment [13], above 100 µM; in [14], above 100 µM; in [15] it was above 27.7 µM; in experiment [16], 87.9 µM; in experiment [17], above 31.4 µM. Further, the TGI in experiment [18] came to 67.4 µM.

Regarding `O=C(O)c1cc(N(Cc2ccccc2O)Cc2cc(O)ccc2O)ccc1O`, the TGI in experiment [1], in experiment [2], in experiment [19], in experiment [3], in experiment [4] and in [5] was above 100 µM in each case. In addition, the TGI in experiment [6], in [7], in experiment [8], in experiment [9], in experiment [20] and in experiment [10] was above 100 µM each time. In addition, the TGI in [11], in [12], in [13], in experiment [14], in experiment [15] and in experiment [17] was above 100 µM throughout.
